In patent publication US5958683A, “Screening method using the RZR receptor family” (priority 1994, dated 1999):

Tests used:
adjuvant arthritis = conditions: known to be active or inactive; cited from earlier work
RZR/RORα = biological target: T1, RZR/RORα (Homo sapiens, UniProt P35398); test: CAT reporter assay for ligand induced activation, Drosophila SL-3 cells transfected with RZR/RORα; format: cell-based; conditions: when applied in the nanomolar range
T1 construct: RZRα is likely the RORalpha4 splice form
T1 sequence (P35398 1-523): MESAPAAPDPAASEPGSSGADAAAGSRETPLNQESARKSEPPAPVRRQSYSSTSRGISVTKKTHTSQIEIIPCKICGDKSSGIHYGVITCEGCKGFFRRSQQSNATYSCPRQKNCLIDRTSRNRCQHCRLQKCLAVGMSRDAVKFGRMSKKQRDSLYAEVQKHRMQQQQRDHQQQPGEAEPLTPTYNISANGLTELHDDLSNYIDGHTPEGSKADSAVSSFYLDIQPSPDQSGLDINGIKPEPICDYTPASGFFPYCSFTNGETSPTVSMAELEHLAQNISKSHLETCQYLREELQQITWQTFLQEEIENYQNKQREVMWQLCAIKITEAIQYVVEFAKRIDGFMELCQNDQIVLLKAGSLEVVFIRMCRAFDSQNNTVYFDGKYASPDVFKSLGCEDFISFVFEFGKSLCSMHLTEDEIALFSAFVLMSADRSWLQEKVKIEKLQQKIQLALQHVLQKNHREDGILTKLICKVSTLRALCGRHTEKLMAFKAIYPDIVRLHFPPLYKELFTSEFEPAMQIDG
Protocol: After dilution with 0.9 ml Schneider's medium, the liposomes are added to the cells.
The values given in table 1 represent the mean activation of CAT activities measured in three independent experiments, compared to the addition of pure solvent (ethanol).

Structure (SMILES)	activity in adjuvant arthritis (adjuvant arthritis)	affinity to the RZR/RORα receptor (RZR/RORα)
CC1=C(/C=C/C(C)=C/C=C/C(C)=C/C(=O)O)C(C)(C)CCC1 [all trans RA, retinoic acid]	-	
CC1=C(/C=C/C(C)=C/C=C/C(C)=C/C(=O)O)C(C)(C)CCC1 [9-cis RA, retinoic acid]	-	
COc1ccc2[nH]cc(CCNC(C)=O)c2c1 [melatonin]		high affinity
C=C1/C(=C\C=C2/CCC[C@]3(C)[C@@H]([C@H](C)CCCC(C)(C)O)CC[C@@H]23)C[C@@H](O)C[C@@H]1O [vitamin D, 1,25-dihydroxyvitaminD3]	-	
